Test results taken from ChEMBL document CHEMBL1201862, “PubChem BioAssay data set” (2004).
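96-well plates; 48 h exposure; 5 concentrations. Endpoints by linear interpolation between flanking doses. Not reached: highest tested concentration assigned. Abbreviation: GI50, concentration required for 50% inhibition of growth.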 Active and inactive are the calls of the source. Rule as the data show it: active = GI50 up to about 1.1 µM and inactive = higher.

Experiments:
Test in all cases: growth of human tumour cells (NCI), 48 h
OVCAR-8 = tested on: OVCAR-8
OVCAR-5 = tested on: OVCAR-5
HCT-15 = tested on: HCT-15
T47D = tested on: T47D
SN12C = tested on: SN12C
NCI-H460 = tested on: NCI-H460
MDA-N = tested on: MDA-N
UACC-62 = tested on: UACC-62
MOLT-4 = tested on: MOLT-4
SF-268 = tested on: SF-268
DU-145 = tested on: DU-145
NCI/ADR-RES = tested on: NCI/ADR-RES
UO-31 = tested on: UO-31
SK-MEL-5 = tested on: SK-MEL-5
CAKI-1 = tested on: CAKI-1
HCT-116 = tested on: HCT-116
SF-539 = tested on: SF-539
A498 = tested on: A498
SR = tested on: SR

| SMILES | GI50 (OVCAR-8) | GI50 (OVCAR-5) | GI50 (HCT-15) [µM] | GI50 (T47D) | GI50 (SN12C) | GI50 (NCI-H460) | GI50 (MDA-N) | GI50 (UACC-62) | GI50 (MOLT-4) | GI50 (SF-268) | GI50 (DU-145) | GI50 (NCI/ADR-RES) | GI50 (UO-31) | GI50 (SK-MEL-5) | GI50 (CAKI-1) | GI50 (HCT-116) | GI50 (SF-539) | GI50 (A498) | GI50 (SR) |
| --- | --- | --- | --- | --- | --- | --- | --- | --- | --- | --- | --- | --- | --- | --- | --- | --- | --- | --- | --- |
| CCOC(=O)c1c[nH]cc1-c1cn(S(=O)(=O)c2ccccc2)cc1C | 28.7 µM (inactive) | 52.7 µM (inactive) | 22.9 | 18.2 µM (inactive) | 25.2 µM (inactive) | 18.4 µM (inactive) | 17.9 µM (inactive) | 15.3 µM (inactive) | 20.4 µM (inactive) | 25.9 µM (inactive) | 50.7 µM (inactive) | 22.2 µM (inactive) | 27.5 µM (inactive) | > 10 µM (inactive) | 17.7 µM (inactive) | 21.6 µM (inactive) | 21.9 µM (inactive) | > 10 µM (inactive) | – |
| COC(=O)c1cc(-c2ccc(-c3ccc(O)cc3)cc2)cc(-c2ccc(-c3ccc(O)cc3)cc2)c1 | – | 15.7 µM (inactive) | 7.74 | 4.61 µM (inactive) | 13.4 µM (inactive) | 17.8 µM (inactive) | 11 µM (inactive) | – | 10.4 µM (inactive) | 4.04 µM (inactive) | – | 11.7 µM (inactive) | 11.5 µM (inactive) | 17 µM (inactive) | 16 µM (inactive) | 5.64 µM (inactive) | 5.33 µM (inactive) | 16.4 µM (inactive) | – |
| CC(=O)c1sc2c(c1O)c(=O)n(-c1ccccc1)c(=S)n2-c1ccccc1 | > 100 µM (inactive) | > 100 µM (inactive) | > 100 | > 100 µM (inactive) | > 100 µM (inactive) | > 100 µM (inactive) | > 100 µM (inactive) | > 100 µM (inactive) | > 100 µM (inactive) | > 100 µM (inactive) | > 100 µM (inactive) | – | > 100 µM (inactive) | > 100 µM (inactive) | – | – | – | – | – |
| Nc1ncnc2c1N=C(c1ccccc1)CC(c1ccccc1)N2 (stereo not given) | > 100 µM (inactive) | > 100 µM (inactive) | > 100 | > 100 µM (inactive) | > 100 µM (inactive) | – | > 100 µM (inactive) | > 100 µM (inactive) | > 100 µM (inactive) | > 100 µM (inactive) | > 100 µM (inactive) | 59.2 µM (inactive) | > 100 µM (inactive) | – | > 100 µM (inactive) | > 100 µM (inactive) | > 100 µM (inactive) | – | > 100 µM (inactive) |
| CCOC(=O)/C(=C\c1ccc(C#N)cc1)C(C)=O | 36.6 µM (inactive) | 30.8 µM (inactive) | 18.2 | 21.4 µM (inactive) | 25.2 µM (inactive) | 28.8 µM (inactive) | 31.1 µM (inactive) | 2.23 µM (inactive) | 25.5 µM (inactive) | 25.2 µM (inactive) | 18.2 µM (inactive) | 28.1 µM (inactive) | 13.8 µM (inactive) | 21.5 µM (inactive) | 22.2 µM (inactive) | 23.3 µM (inactive) | 29 µM (inactive) | 13.3 µM (inactive) | – |
| C=C1[C@@H]2CCC3[C@]4(C)C(CC[C@@]5(C)C(=O)O[C@H](O)[C@@H]45)[C@H](O)[C@]3(C2)[C@H]1OC1OC(CO)C(O)C(O)C1O (stereo not given in full) | > 50 µM (inactive) | > 50 µM (inactive) | > 50 | > 50 µM (inactive) | > 50 µM (inactive) | > 50 µM (inactive) | > 50 µM (inactive) | > 50 µM (inactive) | 17.4 µM (inactive) | > 50 µM (inactive) | > 50 µM (inactive) | > 50 µM (inactive) | > 50 µM (inactive) | > 50 µM (inactive) | – | > 50 µM (inactive) | > 50 µM (inactive) | > 50 µM (inactive) | – |
| CCC12CCCN3CCc4c(n(c5ccccc45)C(O)(C(=O)OC)C1)C32 (stereo not given) | > 100 µM (inactive) | > 100 µM (inactive) | > 100 | > 100 µM (inactive) | > 100 µM (inactive) | > 100 µM (inactive) | > 100 µM (inactive) | > 100 µM (inactive) | > 100 µM (inactive) | > 100 µM (inactive) | > 100 µM (inactive) | > 100 µM (inactive) | > 100 µM (inactive) | > 100 µM (inactive) | > 100 µM (inactive) | > 100 µM (inactive) | > 100 µM (inactive) | > 100 µM (inactive) | – |
| COc1cccc([C@@H]2CC(=O)c3cc4c(cc3N2)OCO4)c1 | > 100 µM (inactive) | > 100 µM (inactive) | > 100 | > 100 µM (inactive) | > 100 µM (inactive) | – | > 100 µM (inactive) | 65.3 µM (inactive) | – | > 100 µM (inactive) | > 100 µM (inactive) | > 100 µM (inactive) | > 100 µM (inactive) | 96.8 µM (inactive) | > 100 µM (inactive) | > 100 µM (inactive) | > 100 µM (inactive) | > 100 µM (inactive) | – |
| C1CSCCCSCCCSCCCSCCCSCCCSCCCSCCCSC1 | > 100 µM (inactive) | > 100 µM (inactive) | > 100 | > 100 µM (inactive) | > 100 µM (inactive) | > 100 µM (inactive) | > 100 µM (inactive) | – | > 100 µM (inactive) | > 100 µM (inactive) | > 100 µM (inactive) | > 100 µM (inactive) | > 100 µM (inactive) | 85.9 µM (inactive) | > 100 µM (inactive) | > 100 µM (inactive) | > 100 µM (inactive) | > 100 µM (inactive) | – |
| COc1ccc(C2SCC(=O)N2NC(=O)c2ccc(NC(C)=O)cc2)cc1 (stereo not given) | > 100 µM (inactive) | > 100 µM (inactive) | > 100 | > 100 µM (inactive) | > 100 µM (inactive) | > 100 µM (inactive) | > 100 µM (inactive) | > 100 µM (inactive) | > 100 µM (inactive) | > 100 µM (inactive) | > 100 µM (inactive) | > 100 µM (inactive) | > 100 µM (inactive) | > 100 µM (inactive) | – | > 100 µM (inactive) | > 100 µM (inactive) | > 100 µM (inactive) | – |
| COc1cc2nc(-c3cccs3)nc(Nc3cccc(Cl)c3)c2cc1OC | 37.8 µM (inactive) | > 100 µM (inactive) | 88.9 | 44.6 µM (inactive) | > 100 µM (inactive) | 42.8 µM (inactive) | – | > 100 µM (inactive) | 61.8 µM (inactive) | 31.3 µM (inactive) | 90.6 µM (inactive) | 48.2 µM (inactive) | > 100 µM (inactive) | > 100 µM (inactive) | > 100 µM (inactive) | > 100 µM (inactive) | 37.2 µM (inactive) | > 100 µM (inactive) | 91.6 µM (inactive) |
| CSc1cc(-c2cccs2)sc1-c1cc(SC)c(-c2sc(-c3sc(-c4cccs4)cc3SC)cc2SC)s1 | > 100 µM (inactive) | 30.6 µM (inactive) | > 100 | > 100 µM (inactive) | > 100 µM (inactive) | > 100 µM (inactive) | > 100 µM (inactive) | > 100 µM (inactive) | > 100 µM (inactive) | > 100 µM (inactive) | > 100 µM (inactive) | > 100 µM (inactive) | – | > 100 µM (inactive) | > 100 µM (inactive) | > 100 µM (inactive) | > 100 µM (inactive) | > 100 µM (inactive) | – |
